Data reported in ChEMBL document CHEMBL2311250 (Bioorg Med Chem Lett, 2013).
Values after ≈ are worked out from the molar mass of the structure shown.

What was measured:
[1] = molecular target: Dual specificity protein kinase CLK1 (Homo sapiens, UniProt P49759); test: Inhibition of CLK1 (unknown origin) in presence of ATP
[2] = molecular target: Calcium/calmodulin-dependent protein kinase type 1 (Homo sapiens, UniProt Q14012); test: Inhibition of CAMK1 (unknown origin) in presence of ATP
[3] = molecular target: Tyrosine-protein kinase ABL1 (Homo sapiens, UniProt P00519); test: Inhibition of ABL (unknown origin) in presence of ATP
[4] = Aqueous solubility of the compound at ph 6.5; format: physicochemical
[5] = Permeability of the compound by PAMPA; format: ADME; conditions: read-out: permeability
hERG (KCNH2) = hERG (KCNH2) (Homo sapiens, UniProt Q12809); test: Displacement of [3H]dofetilide from human ERG at 10 uM; conditions: probe [3H]dofetilide
[6] = Half life in human liver microsomes; format: ADME, Microsome
[7] = Half life in rat liver microsomes; format: ADME, Microsome
Platelet = test: Inhibition of platelet aggregation (unknown origin); format: functional, cell-based
[8] = molecular target: T1, Tyrosine-protein kinase receptor TYRO3 (Homo sapiens, UniProt Q06418); test: Inhibition of Sky (unknown origin) by ELISA kinase assay in presence of 60 uM ATP
T1 sequence (Q06418 whole entry): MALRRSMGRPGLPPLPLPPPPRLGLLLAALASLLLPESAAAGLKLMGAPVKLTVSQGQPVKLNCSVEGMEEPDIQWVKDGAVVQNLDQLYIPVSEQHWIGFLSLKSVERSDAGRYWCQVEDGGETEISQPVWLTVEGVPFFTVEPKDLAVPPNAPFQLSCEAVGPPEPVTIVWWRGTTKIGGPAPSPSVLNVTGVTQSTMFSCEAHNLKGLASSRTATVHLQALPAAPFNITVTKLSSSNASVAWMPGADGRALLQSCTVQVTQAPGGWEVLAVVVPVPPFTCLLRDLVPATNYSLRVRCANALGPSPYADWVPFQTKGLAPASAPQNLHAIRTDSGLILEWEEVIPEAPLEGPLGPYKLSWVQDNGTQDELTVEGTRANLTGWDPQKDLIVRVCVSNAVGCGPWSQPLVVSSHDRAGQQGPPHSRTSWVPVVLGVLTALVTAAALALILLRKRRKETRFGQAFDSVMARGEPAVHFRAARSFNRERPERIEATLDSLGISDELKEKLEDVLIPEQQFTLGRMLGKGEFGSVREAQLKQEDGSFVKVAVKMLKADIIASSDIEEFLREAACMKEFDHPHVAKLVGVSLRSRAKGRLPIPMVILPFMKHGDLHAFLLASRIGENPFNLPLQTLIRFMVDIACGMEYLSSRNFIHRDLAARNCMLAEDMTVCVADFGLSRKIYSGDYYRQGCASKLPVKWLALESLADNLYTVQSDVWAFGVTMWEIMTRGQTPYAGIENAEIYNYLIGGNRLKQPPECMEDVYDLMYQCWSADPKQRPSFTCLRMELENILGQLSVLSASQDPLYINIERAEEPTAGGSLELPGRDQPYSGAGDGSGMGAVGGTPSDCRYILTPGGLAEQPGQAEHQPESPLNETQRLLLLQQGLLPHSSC

[9] = molecular target: Myosin light chain kinase 2, skeletal/cardiac muscle (Homo sapiens, UniProt Q9H1R3); test: Inhibition of MYLK2 (unknown origin) in presence of ATP
[10] = molecular target: Mitogen-activated protein kinase kinase kinase kinase 4 (Homo sapiens, UniProt O95819); test: Inhibition of MAP4K4 (unknown origin) in presence of ATP
[11] = molecular target: Mitogen-activated protein kinase kinase kinase 9 (Homo sapiens, UniProt P80192); test: Inhibition of MAP3K9 (unknown origin) in presence of ATP
[12] = molecular target: Tyrosine-protein kinase Lck (Homo sapiens, UniProt P06239); test: Inhibition of LCK (unknown origin) in presence of ATP
[13] = molecular target: Casein kinase I isoform delta (Homo sapiens, UniProt P48730); test: Inhibition of CK1-delta (unknown origin) in presence of ATP
[14] = Oral bioavailability in Sprague-Dawley rat at 5 mg/kg; format: ADME, organism-based; conditions: in vivo
[15] = Clearance in Sprague-Dawley rat at 1 mg/kg, iv and 5 mg/kg, po; format: ADME, organism-based; conditions: in vivo
[16] = Volume of distribution at steady state in Sprague-Dawley rat at 1 mg/kg, iv and 5 mg/kg, po; format: ADME, organism-based; conditions: in vivo, read-out: Vdss
[17] = Half life in Sprague-Dawley rat at 1 mg/kg, iv and 5 mg/kg, po; format: ADME, organism-based; conditions: in vivo
[18] = molecular target: Tyrosine-protein kinase JAK3 (Homo sapiens, UniProt P52333); test: Inhibition of JAK3 (unknown origin) in presence of ATP
[19] = molecular target: Inhibitor of nuclear factor kappa-B kinase subunit epsilon (Homo sapiens, UniProt Q14164); test: Inhibition of IKKi (unknown origin) in presence of ATP
[20] = molecular target: Inhibitor of nuclear factor kappa-B kinase subunit beta (Homo sapiens, UniProt O14920); test: Inhibition of IKK-beta (unknown origin) in presence of ATP
[21] = molecular target: Glycogen synthase kinase-3 beta (Homo sapiens, UniProt P49841); test: Inhibition of GSK3-beta (unknown origin) in presence of ATP
[22] = molecular target: Fibroblast growth factor receptor 1 (Homo sapiens, UniProt P11362); test: Inhibition of FGFR1 (unknown origin) in presence of ATP
Ephrin type-A receptor 2 = Ephrin type-A receptor 2 (Homo sapiens, UniProt P29317); test: Inhibition of ECK (unknown origin) in presence of ATP
Casein kinase II = Casein kinase II (Homo sapiens, UniProt P19784+P67870+P68400); test: Inhibition of CK2 (unknown origin) in presence of ATP; format: protein-complex assay
[23] = molecular target: Serine/threonine-protein kinase Chk2 (Homo sapiens, UniProt O96017); test: Inhibition of CHK2 (unknown origin) in presence of ATP
[24] = molecular target: Serine/threonine-protein kinase Chk1 (Homo sapiens, UniProt O14757); test: Inhibition of CHK1 (unknown origin) in presence of ATP
CDK6/cyclin D3 = CDK6/cyclin D3 (Homo sapiens, UniProt Q00534); test: Inhibition of CDK6/cyclin D3 (unknown origin) in presence of ATP; format: protein-complex assay
[25] = molecular target: Cyclin-dependent kinase 2/cyclin A (Homo sapiens, UniProt P24941); test: Inhibition of CDK2/cyclin A (unknown origin) in presence of ATP; format: protein-complex assay
Aurora kinase A = Aurora kinase A (Homo sapiens, UniProt O14965); test: Inhibition of Aurora-A (unknown origin) in presence of ATP
[26] = molecular target: Tyrosine-protein kinase BTK (Homo sapiens, UniProt Q06187); test: Inhibition of BTK (unknown origin) in presence of ATP
[27] = molecular target: RAC-alpha serine/threonine-protein kinase (Homo sapiens, UniProt P31749); test: Inhibition of AKT1 (unknown origin) in presence of ATP
CYP2D6 = CYP2D6 (Homo sapiens, UniProt P10635); test: Inhibition of CYP2D6 (unknown origin) at 3 uM; format: ADME
[28] = molecular target: Serine/threonine-protein kinase Nek2 (Homo sapiens, UniProt P51955); test: Inhibition of NEK2 (unknown origin) in presence of ATP
[29] = molecular target: Serine/threonine-protein kinase 3 (Homo sapiens, UniProt Q13188); test: Inhibition of MST2 (unknown origin) in presence of ATP
[30] = molecular target: Serine/threonine-protein kinase 26 (Homo sapiens, UniProt Q9P289); test: Inhibition of MASK (unknown origin) in presence of ATP
[31] = molecular target: Serine/threonine-protein kinase MARK1 (Homo sapiens, UniProt Q9P0L2); test: Inhibition of MARK1 (unknown origin) in presence of ATP
[32] = molecular target: Mitogen-activated protein kinase 1 (Homo sapiens, UniProt P28482); test: Inhibition of MAPK1/ERK2 (unknown origin) in presence of ATP
[33] = molecular target: MAP kinase-activated protein kinase 2 (Homo sapiens, UniProt P49137); test: Inhibition of MAPKAP-K2 (unknown origin) in presence of ATP

Chain of hERG (KCNH2) (Q12809 whole entry): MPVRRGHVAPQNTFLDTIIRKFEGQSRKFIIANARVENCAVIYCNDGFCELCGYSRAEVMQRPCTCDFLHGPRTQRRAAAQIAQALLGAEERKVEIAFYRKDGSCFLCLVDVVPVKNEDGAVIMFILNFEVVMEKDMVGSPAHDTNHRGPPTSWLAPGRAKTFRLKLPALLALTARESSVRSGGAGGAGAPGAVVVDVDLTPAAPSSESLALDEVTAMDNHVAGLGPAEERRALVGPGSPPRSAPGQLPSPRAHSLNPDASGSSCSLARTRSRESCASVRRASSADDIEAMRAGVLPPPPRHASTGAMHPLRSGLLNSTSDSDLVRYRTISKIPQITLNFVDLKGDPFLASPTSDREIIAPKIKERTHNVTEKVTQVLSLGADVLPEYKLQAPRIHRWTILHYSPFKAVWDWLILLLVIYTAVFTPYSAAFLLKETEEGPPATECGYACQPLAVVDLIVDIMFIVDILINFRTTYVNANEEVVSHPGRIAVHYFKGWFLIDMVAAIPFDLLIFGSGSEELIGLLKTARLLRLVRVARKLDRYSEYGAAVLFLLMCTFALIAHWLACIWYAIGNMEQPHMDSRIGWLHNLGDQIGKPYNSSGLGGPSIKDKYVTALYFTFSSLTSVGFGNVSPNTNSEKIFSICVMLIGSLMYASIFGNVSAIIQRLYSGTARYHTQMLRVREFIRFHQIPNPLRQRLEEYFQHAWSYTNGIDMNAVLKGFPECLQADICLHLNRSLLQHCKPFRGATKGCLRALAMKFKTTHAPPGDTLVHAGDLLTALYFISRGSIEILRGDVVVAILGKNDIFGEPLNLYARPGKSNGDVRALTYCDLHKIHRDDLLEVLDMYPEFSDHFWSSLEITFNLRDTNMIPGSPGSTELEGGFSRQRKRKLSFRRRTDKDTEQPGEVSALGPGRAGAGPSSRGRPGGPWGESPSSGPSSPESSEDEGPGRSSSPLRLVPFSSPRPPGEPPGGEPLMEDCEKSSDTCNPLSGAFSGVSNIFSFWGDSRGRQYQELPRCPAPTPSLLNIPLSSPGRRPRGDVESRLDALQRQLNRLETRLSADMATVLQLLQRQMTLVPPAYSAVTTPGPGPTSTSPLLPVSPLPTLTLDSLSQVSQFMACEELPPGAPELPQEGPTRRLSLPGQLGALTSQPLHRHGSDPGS
Chain of Myosin light chain kinase 2, skeletal/cardiac muscle (Q9H1R3 whole entry): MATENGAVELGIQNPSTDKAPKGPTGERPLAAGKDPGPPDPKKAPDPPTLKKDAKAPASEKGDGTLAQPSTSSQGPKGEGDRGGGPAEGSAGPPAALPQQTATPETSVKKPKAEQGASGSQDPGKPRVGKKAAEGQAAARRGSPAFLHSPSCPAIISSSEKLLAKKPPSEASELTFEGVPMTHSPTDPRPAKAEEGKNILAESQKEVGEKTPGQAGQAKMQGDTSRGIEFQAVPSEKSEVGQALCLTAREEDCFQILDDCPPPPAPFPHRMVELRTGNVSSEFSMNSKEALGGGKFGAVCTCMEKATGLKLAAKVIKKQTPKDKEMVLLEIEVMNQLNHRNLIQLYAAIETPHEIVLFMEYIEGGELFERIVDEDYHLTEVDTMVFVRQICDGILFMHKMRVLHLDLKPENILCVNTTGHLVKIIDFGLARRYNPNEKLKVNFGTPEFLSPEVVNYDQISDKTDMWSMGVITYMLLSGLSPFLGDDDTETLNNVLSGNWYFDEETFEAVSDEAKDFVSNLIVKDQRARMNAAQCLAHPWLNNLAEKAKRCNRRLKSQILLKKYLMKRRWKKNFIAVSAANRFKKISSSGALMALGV
Chain of Dual specificity protein kinase CLK1 (P49759 whole entry): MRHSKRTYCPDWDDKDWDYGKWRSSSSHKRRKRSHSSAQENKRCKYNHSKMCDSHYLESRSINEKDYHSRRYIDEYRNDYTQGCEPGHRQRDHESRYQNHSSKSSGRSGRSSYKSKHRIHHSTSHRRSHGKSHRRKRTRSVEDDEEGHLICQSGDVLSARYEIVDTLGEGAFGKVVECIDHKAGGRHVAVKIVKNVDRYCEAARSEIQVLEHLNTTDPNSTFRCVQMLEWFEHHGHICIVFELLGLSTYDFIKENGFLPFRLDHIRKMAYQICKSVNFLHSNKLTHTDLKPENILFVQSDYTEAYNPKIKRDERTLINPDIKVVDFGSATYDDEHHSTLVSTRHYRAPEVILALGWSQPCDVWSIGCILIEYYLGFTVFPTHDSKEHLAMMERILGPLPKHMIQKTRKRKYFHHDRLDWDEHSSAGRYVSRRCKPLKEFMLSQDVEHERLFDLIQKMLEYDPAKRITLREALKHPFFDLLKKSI
Chain of Mitogen-activated protein kinase kinase kinase 9 (P80192 whole entry): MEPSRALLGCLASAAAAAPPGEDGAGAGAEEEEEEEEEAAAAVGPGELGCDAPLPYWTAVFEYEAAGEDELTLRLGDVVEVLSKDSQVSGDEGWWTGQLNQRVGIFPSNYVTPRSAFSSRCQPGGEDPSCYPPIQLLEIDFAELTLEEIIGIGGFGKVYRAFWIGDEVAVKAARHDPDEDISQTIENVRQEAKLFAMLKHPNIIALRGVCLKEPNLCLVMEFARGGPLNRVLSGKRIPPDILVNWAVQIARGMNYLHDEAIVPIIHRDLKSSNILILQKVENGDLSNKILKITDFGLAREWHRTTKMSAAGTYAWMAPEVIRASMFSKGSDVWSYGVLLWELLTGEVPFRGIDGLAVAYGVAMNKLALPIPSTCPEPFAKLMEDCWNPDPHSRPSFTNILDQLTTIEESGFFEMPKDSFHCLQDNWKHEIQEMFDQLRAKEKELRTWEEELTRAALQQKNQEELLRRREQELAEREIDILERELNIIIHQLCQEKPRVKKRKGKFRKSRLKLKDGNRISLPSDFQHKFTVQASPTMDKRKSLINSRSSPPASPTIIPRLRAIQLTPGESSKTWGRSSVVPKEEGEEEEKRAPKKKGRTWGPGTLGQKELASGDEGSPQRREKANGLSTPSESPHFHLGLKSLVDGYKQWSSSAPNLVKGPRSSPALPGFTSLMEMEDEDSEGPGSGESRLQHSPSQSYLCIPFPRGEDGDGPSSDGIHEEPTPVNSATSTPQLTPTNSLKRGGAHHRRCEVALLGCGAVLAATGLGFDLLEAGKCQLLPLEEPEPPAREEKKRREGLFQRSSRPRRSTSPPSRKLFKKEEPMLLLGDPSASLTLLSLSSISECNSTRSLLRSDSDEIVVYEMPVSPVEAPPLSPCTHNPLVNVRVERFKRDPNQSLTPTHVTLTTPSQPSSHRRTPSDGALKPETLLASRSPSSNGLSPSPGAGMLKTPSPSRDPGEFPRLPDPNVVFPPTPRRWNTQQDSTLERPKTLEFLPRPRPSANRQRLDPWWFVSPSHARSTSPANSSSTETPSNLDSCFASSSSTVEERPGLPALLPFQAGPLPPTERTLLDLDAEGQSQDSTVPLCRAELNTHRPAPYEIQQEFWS
Chain of Tyrosine-protein kinase ABL1 (P00519 whole entry): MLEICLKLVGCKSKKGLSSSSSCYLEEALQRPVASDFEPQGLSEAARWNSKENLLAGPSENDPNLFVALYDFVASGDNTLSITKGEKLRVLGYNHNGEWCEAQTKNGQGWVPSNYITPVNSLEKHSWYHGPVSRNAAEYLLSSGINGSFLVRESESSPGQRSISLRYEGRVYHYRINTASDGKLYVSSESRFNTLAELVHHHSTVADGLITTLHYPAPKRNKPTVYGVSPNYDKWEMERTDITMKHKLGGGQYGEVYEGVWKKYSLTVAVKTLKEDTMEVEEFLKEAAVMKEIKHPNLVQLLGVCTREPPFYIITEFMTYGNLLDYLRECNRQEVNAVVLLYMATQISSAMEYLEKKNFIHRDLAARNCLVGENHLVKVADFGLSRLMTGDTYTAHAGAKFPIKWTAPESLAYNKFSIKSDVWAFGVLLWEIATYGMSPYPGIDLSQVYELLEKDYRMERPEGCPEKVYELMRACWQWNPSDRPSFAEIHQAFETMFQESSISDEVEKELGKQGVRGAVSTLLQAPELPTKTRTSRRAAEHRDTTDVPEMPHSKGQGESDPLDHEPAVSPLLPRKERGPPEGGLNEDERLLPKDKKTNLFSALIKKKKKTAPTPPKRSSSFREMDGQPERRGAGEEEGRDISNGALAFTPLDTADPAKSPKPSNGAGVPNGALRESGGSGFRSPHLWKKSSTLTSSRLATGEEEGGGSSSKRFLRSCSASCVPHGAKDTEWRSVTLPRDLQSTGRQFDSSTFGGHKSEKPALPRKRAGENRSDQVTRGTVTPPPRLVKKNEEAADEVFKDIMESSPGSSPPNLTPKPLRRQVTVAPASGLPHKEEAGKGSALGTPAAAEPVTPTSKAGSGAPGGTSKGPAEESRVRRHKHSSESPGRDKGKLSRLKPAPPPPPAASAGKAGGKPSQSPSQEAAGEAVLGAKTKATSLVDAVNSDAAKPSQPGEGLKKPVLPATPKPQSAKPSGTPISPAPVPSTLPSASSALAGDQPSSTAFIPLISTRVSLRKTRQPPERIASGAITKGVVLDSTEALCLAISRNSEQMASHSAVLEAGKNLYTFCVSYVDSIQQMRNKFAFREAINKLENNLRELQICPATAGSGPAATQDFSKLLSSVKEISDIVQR
Chain of Tyrosine-protein kinase Lck (P06239 whole entry, canonical isoform): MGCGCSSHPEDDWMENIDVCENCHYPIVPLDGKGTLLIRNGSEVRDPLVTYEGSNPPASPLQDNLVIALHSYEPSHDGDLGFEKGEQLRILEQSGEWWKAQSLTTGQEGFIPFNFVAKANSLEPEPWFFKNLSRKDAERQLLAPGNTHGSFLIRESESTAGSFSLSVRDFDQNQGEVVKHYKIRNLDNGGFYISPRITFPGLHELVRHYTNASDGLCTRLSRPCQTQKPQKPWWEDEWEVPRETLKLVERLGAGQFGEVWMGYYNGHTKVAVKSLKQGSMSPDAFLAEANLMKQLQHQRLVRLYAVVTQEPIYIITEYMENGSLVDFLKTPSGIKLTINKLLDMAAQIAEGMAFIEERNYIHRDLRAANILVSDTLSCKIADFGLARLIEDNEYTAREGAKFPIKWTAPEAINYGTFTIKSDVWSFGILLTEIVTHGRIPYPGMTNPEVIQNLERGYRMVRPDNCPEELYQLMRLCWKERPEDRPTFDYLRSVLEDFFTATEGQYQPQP

With CN1CCC(NC(=O)c2cnc(Nc3cc(Cl)cc(Cl)c3)nc2NC2CCC(N(C)C)CC2)CC1 (stereo not drawn) the IC50 [1] was 3.45 µM, the IC50 [2] was 19.7 µM and the IC50 [3] was 7.61 µM. It also gave a solubility [4] of 200 µM (≈ 104 µg/mL), a Papp [5] of 0.3 ×10⁻⁶ cm/s and an inhibition at 10 µM (hERG (KCNH2)) of 6.7%. The half-life [6] was 120 min, the half-life [7] was 60 min and the IC50 (Platelet) was 1.4 µM. It also gave an IC50 [8] of 2 nM, an IC50 [9] of 8.27 µM and an IC50 [10] of 120 nM. The IC50 [11] was 12.2 µM.
CN1CCC(NC(=O)c2cnc(Nc3cc(Cl)cc(Cl)c3)nc2N[C@@H]2COC[C@H]2O)CC1 gave an IC50 [12] of 3680 nM, an IC50 [1] of 11.2 µM and an IC50 [13] of 4500 nM. It also gave a bioavailability [14] of 0%, a clearance [15] of 55 mL/min/kg and a Vd [16] of 2.7 L/kg. For the same molecule, the half-life [17] was 780 min, the solubility [4] was 40 µM (≈ 19.3 µg/mL) and the Papp [5] was 1.4 ×10⁻⁶ cm/s. The inhibition at 10 µM (hERG (KCNH2)) was 0.98%, the half-life [6] was 74 min and the half-life [7] was 60 min. It also gave an IC50 (Platelet) of 9.6 µM, an IC50 [8] of 10 nM and an IC50 [9] of 24.9 µM. For the same molecule, the IC50 [10] was 2480 nM and the IC50 [11] was 13.4 µM.
Cc1cc(-c2cnc(Nc3cc(Cl)cc(Cl)c3)nc2NC2CCC(N(C)C)CC2)on1 (stereo not drawn) showed an IC50 [12] of 220 nM, an IC50 [18] of 5.3 µM and an IC50 [19] of 30 µM. For the same molecule, the IC50 [20] was 30 µM, the IC50 [21] was 7.74 µM and the IC50 [22] was 1710 nM. The IC50 (Ephrin type-A receptor 2) was 2430 nM, the IC50 [1] was 1.63 µM and the IC50 [13] was 110 nM. It also gave an IC50 (Casein kinase II) of 7.56 µM, an IC50 [23] of 7.97 µM and an IC50 [24] of 1370 nM. It also gave an IC50 (CDK6/cyclin D3) of 30 µM, an IC50 [25] of 1150 nM and an IC50 [2] of 3.88 µM. The IC50 (Aurora kinase A) was 1550 nM, the IC50 [26] was 950 nM and the IC50 [27] was 3.1 µM. It also gave an IC50 [3] of 0.81 µM, an inhibition at 3 µM (CYP2D6) of 69% and a solubility [4] of 2.3 µM (≈ 1.06 µg/mL). It also gave a Papp [5] of 0.03 ×10⁻⁶ cm/s, an inhibition at 10 µM (hERG (KCNH2)) of 0.35% and a half-life [6] of 28 min. It also gave a half-life [7] of 6 min, an IC50 [28] of 2510 nM and an IC50 [29] of 470 nM. It also gave an IC50 [9] of 4.86 µM, an IC50 [30] of 3.84 µM and an IC50 [31] of 1490 nM. For the same molecule, the IC50 [32] was 30 µM, the IC50 [33] was 18.6 µM and the IC50 [11] was 0.16 µM.
